In one experiment the test system is PANC-1 cells. The experiment in a line: MTT cell viability analysis, single agents, PANC-1. Type of experiment: cell-based, human. On the procedure: (§1) In this example, the effects of the compound of the present invention and different anticancer medicaments on killing cancer cells were studied by MTT (Thiazolyl Blue tetrazolium bromide, 3-[4,5-dimethylthiahiazo-2-yl]-[…] bromide) cell viability analysis.
(§2) Thereafter, each of the aforesaid cell lines was cultured with cell medium containing gemcitabine, cisplatin, 5-fluorouracil, irinotecan, oxaliplatin, paclitaxel, (Z)-n-butylidenephthalide, (E)-n-butylidenephthalide, 2-pentanolybenzoic acid, sodium 2-pentanoylbenzoate, and butylphthalide, for 24 hours, 48 hours and 72 hours, respectively.

In another experiment the test system is Panc02 cells. The experiment in a line: MTT cell viability analysis, single agents, Panc02. Type of experiment: cell-based, mouse. On the procedure:
as §1, §2

For the next experiment, the system named is AsPC-1 cells. Put plainly: MTT cell viability analysis, single agents, AsPC-1. Type of experiment: cell-based, human. On the procedure: as §1, §2
Another experiment deals with Mia-PaCa2 cells. Put plainly: MTT cell viability analysis, single agents, Mia-PaCa2. It is filed as cell-based, human. On the procedure:
as §1, §2

Where [1] appears, read: Homo sapiens, MTT, cultured 24, 48 and 72 hours (time of IC50 not given), read-out: IC50.
Setting [2] is: Mus musculus, MTT, cultured 24, 48 and 72 hours (time of IC50 not given), read-out: IC50.
The mark [3] stands for this setting: Homo sapiens, ASPC1, AsPC-1, MTT, cultured 24, 48 and 72 hours (time of IC50 not given), read-out: IC50.
Where [4] appears, read: Homo sapiens, MIA PaCa-2, Mia-PaCa2, MTT, cultured 24, 48 and 72 hours (time of IC50 not given), read-out: IC50.
[5] abbreviates: MTT, cultured 24, 48 and 72 hours (time of IC50 not given).

These results are taken from patent publication US20230092846A1, “COMBINATION FOR THE TREATMENT OF CANCER AND APPLICATION THEREOF” (EVERFRONT BIOTECH INC., priority 2020, published 2023).

The structures appear in SMILES notation. Values after ≈ are worked out from the molar mass of the structure shown. Where two headings read alike, the source gives them in different places.

Usually IC50 stands for the point on the concentration scale where inhibition reaches its midpoint. `CCCCC(=O)c1ccccc1C(=O)[O-].[Na+]` [sodium 2-pentanoylbenzoate, Sodium 2-pentanoylbenzoate]: the IC50 in the experiment on PANC-1 cells (setting [1]) came to 687 ± 27.1 µg/mL; in the experiment on Panc02 cells (setting [2]) it was 750 ± 28.7 µg/mL; in the experiment on AsPC-1 cells (setting [3]), 624 ± 49.6 µg/mL; in the experiment on Mia-PaCa2 cells (setting [4]), 469 ± 18.6 µg/mL.

Regarding `CCc1c2c(nc3ccc(OC(=O)N4CCC(N5CCCCC5)CC4)cc13)-c1cc3c(c(=O)n1C2)COC(=O)[C@]3(O)CC` [irinotecan, Irinotecan], the IC50 amounted to 38.5 ± 1.08 µg/mL (≈ 65.5 µM) in the experiment on PANC-1 cells (setting [1]), 69.5 ± 1.01 µg/mL (≈ 118 µM) in the experiment with Panc02 cells (setting [2]), 54.4 ± 2.13 µg/mL (≈ 92.7 µM) with AsPC-1 cells (setting [3]) and 21.7 ± 0.82 µg/mL (≈ 36.9 µM) in the experiment on Mia-PaCa2 cells (setting [4]).

Consider `CCC/C=C1/OC(=O)c2ccccc21` [(E)-n-butylidenephthalide], for which the IC50 came to 779 ± 26.9 µg/mL (≈ 4140 µM) with PANC-1 cells (Homo sapiens); 514 ± 9.21 µg/mL (≈ 2730 µM) in the experiment on Panc02 cells (Mus musculus); 131 ± 43.3 µg/mL (≈ 697 µM) with AsPC-1 cells (Homo sapiens, ASPC1); 629 ± 16.5 µg/mL (≈ 3340 µM) in the experiment with Mia-PaCa2 cells (Homo sapiens, MIA PaCa-2).

Regarding `O=C1[O][Pt]2([NH][C@@H]3CCCC[C@H]3[NH]2)[O]C1=O` [oxaliplatin, Oxaliplatin], the IC50 amounted to 18.79 ± 1.35 µg/mL in the experiment on PANC-1 cells (setting [5]); 8.43 ± 0.83 µg/mL in the experiment with Panc02 cells (setting [5]); 42.60 ± 7.61 µg/mL in the experiment on AsPC-1 cells (AsPC-1, MTT, cultured 24, 48 and 72 hours (time of IC50 not given)); 21.81 ± 1.60 µg/mL with Mia-PaCa2 cells (Mia-PaCa2, MTT, cultured 24, 48 and 72 hours (time of IC50 not given)).

For the molecule `CC(=O)O[C@H]1C(=O)[C@@]2(C)[C@H]([C@H](OC(=O)c3ccccc3)[C@]3(O)C[C@H](OC(=O)[C@H](O)[C@@H](NC(=O)c4ccccc4)c4ccccc4)C(C)=C1C3(C)C)[C@]1(OC(C)=O)CO[C@@H]1C[C@@H]2O` [paclitaxel, Paclitaxel], the IC50 came to 0.0196 µg/mL (≈ 0.023 µM) in the experiment with PANC-1 cells (setting [1]), 0.0124 µg/mL (≈ 0.0146 µM) with Panc02 cells (setting [2]), 0.058 µg/mL (≈ 0.0679 µM) in the experiment with AsPC-1 cells (setting [3]) and 0.00458 µg/mL (≈ 0.00536 µM) in the experiment on Mia-PaCa2 cells (setting [4]).
